Laboratory results published in patent US9382254B2, “Compounds and pharmaceutical compositions thereof for the treatment of cystic fibrosis” (Galapagos NV, priority 2013, dated 2016).

What follows are molecules tested against T1, CFTR ΔF508 mutant (Homo sapiens, UniProt P13569, DEL508-508) (assay: YFP-halide influx assay for the CFTR-ΔF508 mutation, gluconate buffer). Conditions: CFBE41o- cells, forskolin 10.67 μM.
T1 construct: expressed in transfected cells; host or cells: CFBE41o- (adenoviral transduction)
T1 sequence (P13569 with tags, fused parts or gaps DEL508-508): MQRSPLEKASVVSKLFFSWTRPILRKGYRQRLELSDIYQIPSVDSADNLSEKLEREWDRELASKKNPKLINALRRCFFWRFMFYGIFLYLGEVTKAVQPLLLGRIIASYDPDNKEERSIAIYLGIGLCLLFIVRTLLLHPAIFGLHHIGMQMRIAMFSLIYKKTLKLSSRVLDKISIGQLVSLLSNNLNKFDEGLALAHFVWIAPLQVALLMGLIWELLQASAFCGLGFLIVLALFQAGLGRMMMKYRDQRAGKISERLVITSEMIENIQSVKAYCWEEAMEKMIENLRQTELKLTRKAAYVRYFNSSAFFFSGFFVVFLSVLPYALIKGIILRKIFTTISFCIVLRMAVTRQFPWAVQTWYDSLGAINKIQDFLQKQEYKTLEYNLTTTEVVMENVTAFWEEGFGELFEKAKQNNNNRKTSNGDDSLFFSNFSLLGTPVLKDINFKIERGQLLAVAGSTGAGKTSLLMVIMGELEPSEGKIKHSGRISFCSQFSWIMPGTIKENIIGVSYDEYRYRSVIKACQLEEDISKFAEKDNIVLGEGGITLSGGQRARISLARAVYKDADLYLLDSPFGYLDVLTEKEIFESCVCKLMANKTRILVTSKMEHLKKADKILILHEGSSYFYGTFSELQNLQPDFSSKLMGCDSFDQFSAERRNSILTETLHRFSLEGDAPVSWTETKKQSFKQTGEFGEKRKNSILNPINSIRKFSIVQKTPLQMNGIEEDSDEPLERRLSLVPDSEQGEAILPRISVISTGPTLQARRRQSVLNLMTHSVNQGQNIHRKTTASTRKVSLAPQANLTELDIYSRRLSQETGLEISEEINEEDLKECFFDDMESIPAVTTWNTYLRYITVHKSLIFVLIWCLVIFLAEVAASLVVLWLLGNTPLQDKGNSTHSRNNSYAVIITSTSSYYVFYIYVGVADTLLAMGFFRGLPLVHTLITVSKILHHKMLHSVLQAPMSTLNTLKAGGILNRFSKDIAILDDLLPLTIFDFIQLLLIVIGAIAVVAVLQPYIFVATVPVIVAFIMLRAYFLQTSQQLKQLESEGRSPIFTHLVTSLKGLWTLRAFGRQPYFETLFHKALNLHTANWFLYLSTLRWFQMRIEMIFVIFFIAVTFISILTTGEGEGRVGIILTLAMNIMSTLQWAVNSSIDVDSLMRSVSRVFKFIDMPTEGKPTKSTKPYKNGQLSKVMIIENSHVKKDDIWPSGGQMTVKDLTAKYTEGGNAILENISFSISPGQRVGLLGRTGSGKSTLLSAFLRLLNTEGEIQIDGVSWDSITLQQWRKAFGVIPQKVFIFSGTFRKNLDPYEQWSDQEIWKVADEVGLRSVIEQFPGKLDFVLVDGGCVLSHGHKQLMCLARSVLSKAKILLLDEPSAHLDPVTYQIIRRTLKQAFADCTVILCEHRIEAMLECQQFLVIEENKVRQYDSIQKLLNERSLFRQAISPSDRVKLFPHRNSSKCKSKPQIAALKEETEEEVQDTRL
Type: cell-based
Excerpt: The YFP halide influx assay measures the functionality of the cystic fibrosis Transmembrane Conductance regulator (CFTR) channels in the cystic fibrosis bronchial epithelium cell line CFBE41o-. The assay is used to evaluate the capacity of compounds to increase the open probability of existing CFTR channels in the membrane. It makes use of the observation that the yellow fluorescent protein (YFP) variant YFP H148Q, I152L has its fluorescence substantially quenched by halide ions like Cl^− and I^−. (Galietta, Haggie, & Verkman, 2001) (Nagai, et al., 2002)
For this purpose, CFBE41o-cells are seeded in 96 well plates (6000 CFBE cells/well). One day after seeding, the CFBE cells are transduced with adenoviral vectors that direct the expression of the CFTR ΔF508 mutant and of the YFP reporter. Cells are incubated at 27° C., 5% CO2 for 24 hours so as to allow for the proper folding and migration to the membrane of the CFTR channel or treated with a CFTR modulator during 24 hours at 37° C.
The I^−-induced quenching of fluorescence is recorded immediately after injection of I^− for 7 seconds. The capacity of a compound to increase the channel opening is directly correlated with the decrease in fluorescence, and is expressed as (1-(fluorescence after 7 seconds (F)/fluorescence before injection (F0))) and an EC50 can be derived from a (1-F/F0) vs compound concentration plot.

| SMILES | EC50 [nM] |
| --- | --- |
| NC(=O)c1cc(S(=O)(=O)N2CCOCC2)sc1NC(=O)c1cc2ccccc2s1 [Compound 50, N-(3-carbamoyl-5-(morpholinosulfonyl)thiophen-2-yl)benzo[b] thiophene-2-carboxamide] | 391 |
| CC(C)(C)c1ccc(C(=O)Nc2sc(S(=O)(=O)N3CCOCC3)cc2C(N)=O)s1 [Compound 51, 5-tert-butyl-N-(3-carbamoyl-5-(morpholinosulfonyl)thiophen-2-yl) thiophene-2-carboxamide] | 599 |
| NC(=O)c1cc(S(=O)(=O)N2CCCCC2)sc1NC(=O)c1cccc(-n2cccn2)c1 [Compound 53, 2-(3-(1H-pyrazol-1-yl)benzamido)-5-(piperidin-1-ylsulfonyl)thiophene-3-carboxamide] | 1260 |
| NC(=O)c1cc(S(=O)(=O)N2CCCCC2)sc1NC(=O)c1cccc(-c2cc[nH]n2)c1 [Compound 54, 2-(3-(1H-pyrazol-3-yl)benzamido)-5-(piperidin-1-ylsulfonyl)thiophene-3-carboxamide] | 3160 |
| NC(=O)c1cc(S(=O)(=O)N2CCCC2)sc1NC(=O)c1cc2ccccc2s1 [Compound 55, N-(3-carbamoyl-5-(pyrrolidini-1-ylsulfonyl)thiophen-2-yl)benzo[b] thiophene-2-carboxamide] | 3330 |
| NC(=O)c1cc(S(=O)(=O)N2CCCCC2)sc1NC(=O)C1(c2ccccc2)CC1 [Compound 57, 2-(1-phenylcyclopropanecarboxamido)-5-(piperidin-1-ylsulfonyl) thiophene-3-carboxamide] | 2490 |
| N#CC1(C(=O)Nc2sc(S(=O)(=O)N3CCCCC3)cc2C(N)=O)CC1 [Compound 58, 2-(1-cyanocyclopropanecarboxamido)-5-(piperidin-1-ylsulfonyl) thiophene-3-carboxamide] | 3330 |
| NC(=O)c1cc(S(=O)(=O)N2CCCCC2)sc1NC(=O)c1cnn2ccccc12 [Compound 60, N-(3-carbamoyl-5-(piperidin-1-ylsulfonyl)thiophen-2-yl)pyrazolo[1,5-a]pyridine-3-carboxamide] | 1900 |
| NC(=O)c1cc(S(=O)(=O)N2CCCCC2)sc1NC(=O)C1(c2ccc(Cl)cc2)CC1 [Compound 61, 2-(1-(4-chlorophenyl)cyclopropanecarboxamido)-5-(piperidin-1-ylsulfonyl) thiophene-3-carboxamide] | > 1000 |
| NC(=O)c1cc(S(=O)(=O)N2CCCCC2)sc1NC(=O)c1cncs1 [Compound 62, N-(3-carbamoyl-5-(piperidin-1-ylsulfonyl)thiophen-2-yl)thiazole-5-carboxamide] | 2180 |
| NC(=O)c1cc(S(=O)(=O)N2CCCCC2)sc1NC(=O)c1ccc(-c2cccnc2)s1 [Compound 64, N-(3-carbamoyl-5-(piperidin-1-ylsulfonyl)thiophen-2-yl)-5-(pyridin-3-yl)thiphene-2-carboxamide] | 2160 |
| CC(C)(C)c1ccc(C(=O)Nc2sc(S(=O)(=O)N3CCC(F)(F)CC3)cc2C(N)=O)cc1 [Compound 65, 2-(4-tert-butylbenzamido)-5-(4,4-difluoropiperidin-1-ylsulfonyl)thiophene-3-carboxamide] | 1570 |
| COc1cc(Nc2ccccc2)ccc1C(=O)Nc1sc(S(=O)(=O)N2CCOCC2)cc1C(N)=O [Compound 70, 2-(2-methoxy-4-(phenylamino)benzamido)-5-(morpholinosulfonyl) thiophene-3-carboxamide] | 921 |
| CN(Cc1ccccc1)S(=O)(=O)c1cc(C(N)=O)c(NC(=O)C2(c3ccc4c(c3)OC(F)(F)O4)CC2)s1 [Compound 71, 5-(N-benzyl-N-methylsulfamoyl)-2-(1-(2,2-difluorobenzo[d][1,3]dioxol-5-yl)cyclopropanecarboxamido) thiophene-3-carboxamide] | 797 |
| CN(Cc1ccccc1)S(=O)(=O)c1cc(C(N)=O)c(NC(=O)c2ccccc2F)s1 [Compound 72, 5-(N-benzyl-N-methylsulfamoyl)-2-(2-fluorobenzamido) thiophene-3-carboxamide] | 326 |
| CN(C)S(=O)(=O)c1cc(C(N)=O)c(NC(=O)c2cc[nH]n2)s1 [Compound 75, N-(3-carbamoyl-5-(N,N-dimethylsulfamoyl)thiophen-2-yl)-1H-pyrazole-3-carboxamide] | 418 |
| NC(=O)c1cc(S(=O)(=O)N2CCOCC2)sc1NC(=O)c1cscn1 [Compound 76, N-(3-carbamoyl-5-(morpholinosulfonyl)thiophen-2-yl)thiazole-4-carboxamide] | 621 |
| NC(=O)c1cc(S(=O)(=O)N2CCOCC2)sc1NC(=O)c1ncccc1F [Compound 77, N-(3-carbamoyl-5-(morpholinosulfonyl)thiophen-2-yl)-3-fluoropicolinamide] | 3330 |
| NC(=O)c1cc(S(=O)(=O)N2CCOCC2)sc1NC(=O)c1cccnn1 [Compound 79, N-(3-carbamoyl-5-(morpholinosulfonyl)thiophen-2-yl) pyridazine-3-carboxamide] | > 1000 |
| NC(=O)c1cc(S(=O)(=O)N2CCOCC2)sc1NC(=O)c1ccnnc1 [Compound 80, N-(3-carbamoyl-5-(morpholinosulfonyl)thiophen-2-yl)pyridazine-4-carboxamide] | > 1000 |
| NC(=O)c1cc(S(=O)(=O)N2CCOCC2)sc1NC(=O)c1ncccn1 [Compound 81, N-(3-carbamoyl-5-(morpholinosulfonyl)thiophen-2-yl) pyrimidine-2-carboxamide] | > 1000 |
| Cc1ccc(C(=O)Nc2sc(S(=O)(=O)Cc3ccccc3)cc2C(N)=O)s1 [Compound 82, N-(5-(benzylsulfonyl)-3-carbamoylthiophen-2-yl)-5-methylthiophene-2-carboxamide] | 468 |
| Cc1ccc(C(=O)Nc2sc(S(=O)(=O)C3CCOCC3)cc2C(N)=O)s1 [Compound 84, N-(3-carbamoyl-5-(tetrahydro-2H-pyran-4-ylsulfonyl)thiophen-2-yl)-5-methylthiophene-2-carboxamide] | 3190 |
| Cc1ccc(C(=O)Nc2sc(S(=O)(=O)c3ccccn3)cc2C(N)=O)s1 [Compound 89, N-(3-carbamoyl-5-(pyridin-2-ylsulfonyl)thiophen-2-yl)-5-methylthiophene-2-carboxamide] | 378 |

These reach a lower EC50. Values come first.

| EC50 [nM] | SMILES |
| --- | --- |
| 261 | Cc1c(S(=O)(=O)N2CCOCC2)sc(NC(=O)c2cc[nH]n2)c1C(N)=O [Compound 90, N-(3-carbamoyl-4-methyl-5-(morpholinosulfonyl)thiophen-2-yl)-1H-pyrazole-3-carboxamide] |
| 251 | NC(=O)c1cc(S(=O)(=O)N2CCOCC2)sc1NC(=O)c1cc[nH]n1 [Compound 63, N-(3-carbamoyl-5-(morpholinosulfonyl)thiophen-2-yl)-1H-pyrazole-3-carboxamide] |
| 250 | CC(C)(C)C(=O)Nc1sc(S(=O)(=O)N2CCC(F)(F)CC2)cc1C(N)=O [Compound 67, 5-(4,4-difluoropiperidin-1-ylsulfonyl)-2-pivalamidothiophene-3-carboxamide] |
| 206 | NC(=O)c1cc(S(=O)(=O)N2CCCC2)sc1NC(=O)c1cc[nH]n1 [Compound 56, N-(3-carbamoyl-5-(pyrrolidin-1-ylsulfonyl)thiophen-2-yl)-1H-pyrazole-3-carboxamide] |
| 204 | NC(=O)c1cc(S(=O)(=O)N2CCCCC2)sc1NC(=O)c1ccccc1C1CC1 [Compound 52, 2-(2-cyclopropylbenzamido)-5-(piperidin-1-ylsulfonyl) thiophene-3-carboxamide] |
| 182 | NC(=O)c1cc(S(=O)(=O)N2CCCCC2)sc1NC(=O)c1cscn1 [Compound 59, N-(3-carbamoyl-5-(piperidin-1-ylsulfonyl)thiophen-2-yl)thiazole-4-carboxamide] |
| 162 | CN(Cc1ccccc1)S(=O)(=O)c1cc(C(N)=O)c(NC(=O)C(C)(C)C)s1 [Compound 88, 5-(N-benzyl-N-methylsulfamoyl)-2-pivalamidothiophene-3-carboxamide] |
| 153 | NC(=O)c1cc(S(=O)(=O)N2CCC(F)(F)CC2)sc1NC(=O)c1ccccc1F [Compound 66, 5-(4,4-difluoropiperidin-1-ylsulfonyl)-2-(2-fluorobenzamido)thiophene-3-carboxamide] |
| 147 | CCc1cc(C(=O)Nc2sc(S(=O)(=O)N3CCOCC3)cc2C(N)=O)n[nH]1 [Compound 69, N-(3-carbamoyl-5-(morpholinosulfonyl)thiophen-2-yl)-5-ethyl-1H-pyrazole-3-carboxamide] |
| 138 | Cc1ccc(C(=O)Nc2sc(S(=O)(=O)c3ccccc3)c(C)c2C(N)=O)s1 [Compound 86, N-(3-carbamoyl-4-methyl-5-(phenylsulfonyl)thiophen-2-yl)-5-methylthiophene-2-carboxamide] |
| 135 | CN(C)S(=O)(=O)c1cc(C(N)=O)c(NC(=O)c2ccccc2F)s1 [Compound 74, 5-(N,N-dimethylsulfamoyl)-2-(2-fluorobenzamido) thiophene-3-carboxamide] |
| 129 | CC(C)(C)c1cc(C(=O)Nc2sc(S(=O)(=O)N3CCOCC3)cc2C(N)=O)n[nH]1 [Compound 68, 5-tert-butyl-N-(3-carbamoyl-5-(morpholinosulfonyl)thiophen-2-yl)-1H-pyrazole-3-carboxamide] |
| 114 | Cc1c(S(=O)(=O)N2CCOCC2)sc(NC(=O)c2ccccc2F)c1C(N)=O [Compound 85, 2-(2-fluorobenzamido)-4-methyl-5-(morpholinosulfonyl) thiophene-3-carboxamide] |
